The source of these data is US6106872A, “Process for obtaining aroma components and aromas from their precursors of a glycosidic nature, and aroma components and aromas thereby obtained” (Gist-brocades NV, priority 1988, dated 2000).

A short description of experiment [1]: Sequential enzymatic hydrolysis of HPLC fractions (peaks A and B), GC analysis. It counts as biochemical, Muscat de Frontignan variety grapes. The protocol: The benefits of high performance liquid chromatography were exploited for isolating some terpene glycosides. For this purpose, fractions were collected as they emerged from the chromatographic system (more especially on elution of the peaks A and B) during the separation of the constituents of the glycosidic extract. (FIG. 10 below). Fifteen successive injections of 20 μl each enabled sufficient material to be isolated for the enzymatic hydrolyses and the analyses by GC to be performed in order to identify the compounds in question.
The chromatographic system consists of the following components: a Vista 5500 chromatograph equipped with a variable wavelength UV/visible spectrophotometer (Varian Assoc., Sunnyvale, Calif., USA); a six-way injection valve (Valco) equipped with a 20-μl loop; a stainless steel column (220×4 mm I.D.) filled with Spheri-5 (Brownlee Labs., Santa Clara, Calif., USA) octadecyl grafted silica of small particle size (5 μm); as well as a precolumn (37×4 mm I.D.) packed with the same stationary phase.
The chromatography is carried out using a water/-acetonitrile aqueous-organic mobile phase (reversed-phase polarity chromatography) and an elution graduated according to an increase in the acetonitrile content from 30 to 40% (by volume) in the course of 10 minutes. The elution solvent is pumped at a flow rate of 1 ml/min. The detection is performed at 200 nm and 0.5 absorbance unit full-scale.
Furthermore, each fraction was subjected to the sequential action of α-arabinosidase and then β-glucosidase. At the end of each stage and according to the procedures described, the incubated medium was analysed by GC in order to test for sugars and glucosides on the one hand, and for terpenols on the other hand. Thus, the peaks A and B were identified, respectively, as neryl and geranyl α-L-arabinofuranosyl-β-D-glucopyranosides. The identity of the geranyl glycoside was verified, in addition, by co-injection of the glycosidic extract with the synthetic compound.

Experiment [2] is described as follows: Enzymatic hydrolysis on natural media by commercial enzyme preparations. The following applies: Hemicellulase + Naringinase, 25° C., 86 hours. It is filed as biochemical, Muscat d'Alexandrie variety grapes. The procedure:
The enzymatic hydrolysis of a glycosidic extract incorporated, on the one hand into a natural medium (must or dry wine), and on the other hand into a reference medium (buffer), by the action of commercial preparations containing the requisite three glycosidases, was studied.
A juice and a wine of a vine variety not containing terpenols and terpene glycosides, but enriched beforehand with a known amount of glycosidic extract of muscat, are treated with commercial enzyme preparations. The media, as well as controls, are incubated at 25° C. for 86 hours (see the experimental protocol plan below). They are then passed through a column of Amberlite XAD-2 according to the protocol applied for the production of the glycosidic extract, and the terpenols are assayed by GC.
(4) The glycosidic extract used is obtained by passing a must of Muscat d'Alexandrie variety grapes through Amberlite XAD-2. The amount of glycosidic extract (1 ml) added in the tests corresponds to that found in 50 ml of must of Muscat d'Alexandrie variety grapes.

A short description of experiment [3]: Enzymatic hydrolysis of a glycosidic extract (TLC and GC monitoring). It counts as biochemical, Muscat de Frontignan variety grapes. Conditions: for % of monoglucosides: Table 5, both enzymes together; for Terpene monoglucosides liberated by α-arabinosidase / Terpene monoglucosides liberated by α-rhamnosidase: Table 5, percentage of the total amount liberated by the two enzymes. The protocol:
Thin-layer adsorption chromatography was carried out on pieces of aluminum foil covered with a thin layer (0.2 mm) of silica gel (5553 Silica gel 60 without a fluorescence indicator, Merck). An ethyl acetate/isopropanol/water (65:30:10 v/v/v) mixture was used as a migration solvent.
The sugars and the glycosides are visualized by means of the following mixture, prepared immediately before use: 0.2% napthoresorcinol in ethanol/concentrated sulphuric acid (19:1 v/v). The application of this visualizing agent is followed by drying the plates in the oven (105° C.) for 15 minutes. Apart from their migration distance, the various compounds are also distinguished by their color. The glycosides are purple-red, the arabinosides are bluish, rhamnose greenish pink, arabinose blue and glucose pink.
40 μl of glycosidic extract and 60 μl of a solution of Glc-pNP (internal standard) at a concentration of 50 mg/l in ethyl acetate are introduced into a suitable flask. The mixture is taken to dryness at 40° C. with a stream of nitrogen. 40 μl of the silylating reagent (Tri-sil, Pierce, Rockford, Ill., USA) are then introduced; the flask is sealed and maintained at 40° C. for 20 minutes. After rapid cooling, the silylated sample is then ready for analysis by GC.
The apparatus used consists of a Series 30C gas chromatograph, an "on-column" injector (injected volume 0.5 μl) and a flame ionization detector (Girdel, France). A thin film (0.20 μm) of an OV-1 (girdel) apolar silicone phase is grafted onto the inner wall of the capillary column ([…].). The oven temperature is programmed from 125 to 305° C. at the rate of 5° C./minute, then maintained at 305° C. for 15 minutes. Finally, the detector temperature is set at 300° C. and hydrogen is used as the carrier gas at a pressure of 120 kPa.
The monoterpene alcohols studied here are sufficiently volatile to be chromatographed as they are. To the pentane extract containing them, the internal standard, 4-nonanol (for synthesis, Merck, Darmstadt, FRG) is added in the proportion of 1 μl of a solution at a concentration of 2.89 mg/ml in pentane per 50 μl of medium. The mixture is then dried over sodium sulphate, filtered through glass wool and then concentrated to a volume in the region of 100 μl. For this purpose, the pentane is first removed using a conventional still, and then a Dufton type column of a size suited to the volume remaining to be concentrated.
The constituents of the concentrated extract are separated using a capillary column (25 m×0.32 mm I.D.) containing a CP wax 52 CB (Chrompack, Middelburg, Netherlands) polar phase. The grafted polyethylene glycol film was selected thick (1.28 μm) in order to permit the injection of large sample volumes, up to 4 μl. The analysis is performed using a Fractovap Series 2900 (Carlo Erba, Milan, Italy) chromatograph, equipped with a flame ionization detector maintained at 250° C. and an "on-column" injector. Hydrogen was used as the carrier gas at a pressure of 60 kPa, and the oven temperature was programmed as follows: isothermal at 70° C. for 5 minutes, followed by a rise to 195° C. at the rate of 2° C./minute and a plateau at 195° C. for 15 minutes.
The glycosidic extract was obtained by extraction of a must of Muscat de Frontignan variety grapes collected at maturity in the vines of the Station Experimentale de Pech Rouge (INRA Gruissan, France), followed by removal of the free terpenols and sugars.
The glycoside fraction was taken to dryness under vacuum and then taken up in 18 ml of water. The glycosidic extract used in the chromatographic and enzymatic experiments was thereby obtained.
The experimental protocols for the enzymatic hydrolysis on the glycosidic extract are collated in Table 3. […]

Experiment [4] in a line: Enzymatic hydrolyses on synthetic substrates (TLC, pNP, GC). It is filed as biochemical. Conditions: from the synthetic glycosides.
From the text: The enzymatic hydrolysis is followed by thin-layer chromatography (TLC) and by gas chromatography (GC).
In all the tests relating to the enzymatic hydrolysis of the synthetic substrates, the same glycosidase activity (0.15 nkat) is used for each of the enzymes (α-arabinosidase, α-rhamnosidase, β-glucosidase).

Entries after “also recorded” stand apart in the source; their conditions may differ.

For `CC(C)=CCC/C(C)=C\CO[C@@H]1O[C@H](CO[C@@H]2O[C@@H](CO)[C@H](O)[C@H]2O)[C@@H](O)[C@H](O)[C@H]1O` (single isomer, unassigned) [Peak A, neryl α-L-arabinofuranosyl-(1--> 6)-β-D-glucopyranoside], in experiment [1], the “Compounds appearing after action of α-arabinosidase” value is “arabinose; also recorded: Glc--Ner”; the “Compounds appearing after action of α-arabinosidase and then β-glucosidase” value is on record as “glucose; also recorded: nerol”.
Regarding `CC(C)=CCC/C(C)=C/CO[C@@H]1O[C@H](CO[C@@H]2O[C@@H](CO)[C@H](O)[C@H]2O)[C@@H](O)[C@H](O)[C@H]1O` (single isomer, unassigned) [Peak B, geranyl α-L-arabinofuranosyl-(1--> 6)-β-D-glucopyranoside], in experiment [1], the “Compounds appearing after action of α-arabinosidase” value is recorded as “arabinose; also recorded: Glc--Ger”; the “Compounds appearing after action of α-arabinosidase and then β-glucosidase” value is recorded as “glucose; also recorded: geraniol”.
As to `OCc1ccccc1` [Benzyl alcohol, benzyl alcohol], the “Compounds liberated relative to the reference medium” value in experiment [2] (MUST (pH 3.4, sugars 180 g/l)) is listed as 46%; in experiment [2] (WINE (dry white, pH 3.1)), 50%.
Turning to `CC(C)=CCC/C(C)=C/CO[C@@H]1O[C@H](CO)[C@@H](O)[C@H](O)[C@H]1O` [Glc--Ger, geranyl β-D-glucopyranoside], in experiment [3], the “% of monoglucosides” value was found to be 48%, the “Terpene monoglucosides liberated by α-arabinosidase” value was found to be 39% and the “Terpene monoglucosides liberated by α-rhamnosidase” value is listed as 9%.
`C=CC(C)(CCC=C(C)C)O[C@@H]1O[C@H](CO)[C@@H](O)[C@H](O)[C@H]1O` (stereo partly drawn) [Glc--Lin, linalyl β-D-glucopyranoside]: in experiment [3], the “% of monoglucosides” value was determined as 19%, the “Terpene monoglucosides liberated by α-arabinosidase” value came out at 10% and the “Terpene monoglucosides liberated by α-rhamnosidase” value is recorded as 9%.
Take `CC(C)=CCC/C(C)=C\CO[C@@H]1O[C@H](CO)[C@@H](O)[C@H](O)[C@H]1O` [Glc--Ner, neryl β-D-glucopyranoside]: in experiment [3], the “% of monoglucosides” value was 33%, the “Terpene monoglucosides liberated by α-arabinosidase” value was 28% and the “Terpene monoglucosides liberated by α-rhamnosidase” value is given as 5%.
Take `C=CC(C)(O)CCC=C(C)C` (stereo not drawn) [Linalol, linalool]: the “Compounds liberated relative to the reference medium” value turned out to be 9% in experiment [2] (MUST (pH 3.4, sugars 180 g/l)) and 14% in experiment [2] (WINE (dry white, pH 3.1)).
As to `O=[N+]([O-])c1ccc(O)cc1` [pNP, p-nitrophenol], the “liberation of the aglycones” value in experiment [4] was “liberated only after the sequential action of both glycosidases”.
